Laboratory results: ChEMBL document CHEMBL5154806, “Synthesis and Profiling of Highly Selective Inhibitors of Methyltransferase DOT1L Based on Carbocyclic C-Nucleosides” (J Med Chem, 2022)

Tests used:
[1] = target: T1, Histone-lysine N-methyltransferase, H3 lysine-79 specific (Homo sapiens, UniProt Q8TEK3); assay: Binding affinity to human DOT1L assessed as binding free energy difference
Target sequence in this assay (Q8TEK3 whole entry, looked up): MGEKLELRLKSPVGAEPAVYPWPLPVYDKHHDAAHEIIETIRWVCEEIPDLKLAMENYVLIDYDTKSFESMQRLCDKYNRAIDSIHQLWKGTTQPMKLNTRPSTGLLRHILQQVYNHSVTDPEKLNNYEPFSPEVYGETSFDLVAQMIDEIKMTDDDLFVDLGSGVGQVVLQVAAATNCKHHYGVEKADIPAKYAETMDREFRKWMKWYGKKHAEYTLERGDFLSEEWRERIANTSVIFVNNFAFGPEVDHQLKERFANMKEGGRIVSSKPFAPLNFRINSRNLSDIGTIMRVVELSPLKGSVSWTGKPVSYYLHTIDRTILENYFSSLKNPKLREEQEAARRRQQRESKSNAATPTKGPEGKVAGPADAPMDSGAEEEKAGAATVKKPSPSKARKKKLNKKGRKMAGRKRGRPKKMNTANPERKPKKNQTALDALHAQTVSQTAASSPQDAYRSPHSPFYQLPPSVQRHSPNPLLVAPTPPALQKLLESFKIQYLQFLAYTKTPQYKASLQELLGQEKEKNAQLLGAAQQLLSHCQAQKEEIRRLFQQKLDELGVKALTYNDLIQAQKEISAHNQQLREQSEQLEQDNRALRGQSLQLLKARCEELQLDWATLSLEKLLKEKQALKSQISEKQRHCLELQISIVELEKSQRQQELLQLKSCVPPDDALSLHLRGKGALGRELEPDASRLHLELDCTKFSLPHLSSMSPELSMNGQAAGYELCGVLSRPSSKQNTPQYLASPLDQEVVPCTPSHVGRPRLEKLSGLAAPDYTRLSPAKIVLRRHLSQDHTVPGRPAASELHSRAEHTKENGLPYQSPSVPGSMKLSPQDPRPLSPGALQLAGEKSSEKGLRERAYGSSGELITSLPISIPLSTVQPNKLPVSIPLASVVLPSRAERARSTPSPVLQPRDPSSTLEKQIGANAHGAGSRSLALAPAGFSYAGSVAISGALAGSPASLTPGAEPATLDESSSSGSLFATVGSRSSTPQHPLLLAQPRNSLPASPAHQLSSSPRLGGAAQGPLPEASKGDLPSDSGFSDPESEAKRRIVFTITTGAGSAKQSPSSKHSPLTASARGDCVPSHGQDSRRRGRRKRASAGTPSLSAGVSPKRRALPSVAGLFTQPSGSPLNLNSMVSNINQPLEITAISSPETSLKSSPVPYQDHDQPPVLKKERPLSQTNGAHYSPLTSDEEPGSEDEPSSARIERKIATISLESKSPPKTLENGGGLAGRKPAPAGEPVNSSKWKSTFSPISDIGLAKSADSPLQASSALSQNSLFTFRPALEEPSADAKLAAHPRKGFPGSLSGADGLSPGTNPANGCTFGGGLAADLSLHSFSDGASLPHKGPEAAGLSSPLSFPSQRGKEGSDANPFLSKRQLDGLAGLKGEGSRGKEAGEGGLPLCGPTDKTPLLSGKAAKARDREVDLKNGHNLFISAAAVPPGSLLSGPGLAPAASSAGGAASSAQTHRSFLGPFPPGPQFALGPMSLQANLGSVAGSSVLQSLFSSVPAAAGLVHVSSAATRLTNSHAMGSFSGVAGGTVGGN

[2] = target: T1, Histone-lysine N-methyltransferase, H3 lysine-79 specific; assay: Inhibition of human DOT1L by hotspot PMT activity assay
Target sequence in this assay (Q8TEK3 whole entry): as the sequence (Q8TEK3 whole entry, looked up) above

[3] = Half life in fasted BALB/c mouse at 20 mg/kg, iv administered upto 600 mins by HPLC-MS/MS analysis; format: ADME, organism-based; conditions: in vivo
[4] = Cmax in fasted BALB/c mouse at 20 mg/kg, iv administered upto 600 mins by HPLC-MS/MS analysis; format: ADME, organism-based; set-up: time < 600 min, dose 20 mg/kg, route iv; conditions: in vivo
[5] = AUC (0 to t) in fasted BALB/c mouse at 20 mg/kg, iv administered upto 600 mins by HPLC-MS/MS analysis; format: ADME, organism-based; set-up: dose 20 mg/kg, time < 600 min, route iv; conditions: in vivo
[6] = Elimination rate constant in fasted BALB/c mouse at 20 mg/kg, po administered upto 600 mins by HPLC-MS/MS analysis; format: ADME, organism-based; conditions: in vivo
[7] = Bioavailability in fasted BALB/c mouse at 20 mg/kg, iv administered upto 600 mins by HPLC-MS/MS analysis; format: ADME, organism-based; conditions: in vivo
[8] = Clearance in fasted BALB/c mouse at 20 mg/kg, iv administered upto 600 mins by HPLC-MS/MS analysis; format: ADME, organism-based; conditions: in vivo
[9] = Tmax in fasted BALB/c mouse at 20 mg/kg, iv administered upto 600 mins by HPLC-MS/MS analysis; format: ADME, organism-based; conditions: in vivo
[10] = AUC (0 to infinity) in fasted BALB/c mouse at 20 mg/kg, po administered upto 600 mins by HPLC-MS/MS analysis; format: ADME, organism-based; set-up: dose 20 mg/kg, time < 600 min, route po; conditions: in vivo
[11] = Elimination rate constant in fasted BALB/c mouse at 20 mg/kg, iv administered upto 600 mins by HPLC-MS/MS analysis; format: ADME, organism-based; conditions: in vivo
[12] = Cmax in fasted BALB/c mouse at 20 mg/kg, po administered upto 600 mins by HPLC-MS/MS analysis; format: ADME, organism-based; set-up: time < 600 min, dose 20 mg/kg, route po; conditions: in vivo
[13] = Half life in fasted BALB/c mouse at 20 mg/kg, po administered upto 600 mins by HPLC-MS/MS analysis; format: ADME, organism-based; conditions: in vivo
[14] = AUC (0 to infinity) in fasted BALB/c mouse at 20 mg/kg, iv administered upto 600 mins by HPLC-MS/MS analysis; format: ADME, organism-based; set-up: dose 20 mg/kg, time < 600 min, route iv; conditions: in vivo
[15] = Volume of distribution in fasted BALB/c mouse at 20 mg/kg, iv administered upto 600 mins by HPLC-MS/MS analysis; format: ADME, organism-based; conditions: in vivo
[16] = Tmax in fasted BALB/c mouse at 20 mg/kg, po administered upto 600 mins by HPLC-MS/MS analysis; format: ADME, organism-based; conditions: in vivo
[17] = AUC (0 to t) in fasted BALB/c mouse at 20 mg/kg, po administered upto 600 mins by HPLC-MS/MS analysis; format: ADME, organism-based; set-up: dose 20 mg/kg, time < 600 min, route po; conditions: in vivo

In the case of `CC(C)N(CCCNC(=O)Nc1ccccc1)C[C@H]1C[C@@H](c2ccc3c(N)ncnn23)[C@H](O)[C@@H]1O`, the deltaG [1] is reported as -0.717 kcal/mol.
For `CN(CCCNC(=O)Nc1ccc(C(C)(C)C)cc1)C[C@H]1C[C@@](O)(c2ccc3c(N)ncnn23)[C@H](O)[C@@H]1O`, the IC50 [2] was greater than 10000 nM.
Compound `CN(CCCNC(=O)Nc1ccccc1)C[C@H]1C[C@@](O)(c2ccc3c(N)ncnn23)[C@H](O)[C@@H]1O` has a deltaG [1] of 3.35 kcal/mol.
With `CN(CCCNC(=O)Nc1ccccc1)C[C@H]1C[C@@H](c2ccc3c(N)ncnn23)[C@@H](O)[C@@H]1O` the deltaG [1] was 3.82 kcal/mol.
In the case of `CC(C)NC[C@@H]1C[C@H](c2ccc3c(N)ncnn23)[C@@H](O)[C@H]1O`, the half-life [3] is reported as 66.7 min, the Cmax [4] is reported as 18400 ng/mL and the AUC(0-t) at 10 h [5] is reported as 7170 ng·h/mL. For the same compound, the k el at 10 h [6] was 0.000457 s⁻¹, the bioavailability [7] was 12% and the clearance [8] was 46 mL/min/kg. The Tmax [9] was 5 min, the AUC(0-inf) [10] was 845 ng·h/mL and the k el at 10 h [11] was 0.000173 s⁻¹. The Cmax [12] was 645 ng/mL, the half-life [13] was 25.3 min and the AUC(0-inf) [14] was 7250 ng·h/mL. It also gave a Vd [15] of 4.43 L/kg, a Tmax [16] of 120 min and an AUC(0-t) at 10 h [17] of 830 ng·h/mL.
Compound `CC(C)N(CCCNC(=O)Nc1ccc(C(C)(C)C)cc1)C[C@H]1C[C@@H](c2ccc3c(N)ncnn23)[C@H](O)[C@@H]1O` has an IC50 [2] of 292 nM.
Work on `CN(CCCNC(=O)Nc1ccc(C(C)(C)C)cc1)C[C@H]1C[C@@H](c2cnn3c(N)ccnc23)[C@H](O)[C@@H]1O` yielded an IC50 [2] greater than 10000 nM.
`CC(C)N(C[C@H]1C[C@@H](c2ccc3c(N)ncnn23)[C@H](O)[C@@H]1O)[C@H]1C[C@H](CCc2nc3cc(C(C)(C)C)ccc3[nH]2)C1` (racemic) gave an IC50 [2] of 13.8 nM.
Work on `CN(CCCNC(=O)Nc1ccc(C(C)(C)C)cc1)C[C@H]1C[C@@H](c2ccc3c(N)ncnn23)[C@H](O)[C@@H]1O` (stereo in doubt; (+)-25) yielded a deltaG [1] of -0.239 kcal/mol.
